Assay results reported in patent US6355799B1, “Substituted benzene compounds, process for their preparation, and herbicidal and defoliant compositions containing them” (ISK Americas Incorporated, priority 1997, dated 2002).

What was measured:
Assay type in all cases: in vivo
[1] = system: field corn (Zea mays L., var. Dekalb 535, CORN); experiment: Pre-emerge test, crop safety; conditions: pre-emerge, rated 14 days after application, 0 = no damage, 100 = complete death
Method in brief: (§1)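 Herbicidal damage is scored 0 (none) to 100 (complete plant death) two weeks after a simulated field spray. Rates span 15–1000 g ai/ha, delivered in acetone at 187 l/ha. For post-emergence treatments, plants have 2–3 leaves and the spray carries 0.25% v/v non-ionic surfactant.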

[2] = system: upland rice (Oryza sp., var. Tebonnet, RICE); experiment: Pre-emerge test, crop safety; conditions: pre-emerge, rated 14 days after application, 0 = no damage, 100 = complete death
Method in brief: as §1

[3] = system: velvetleaf (Abutilon theophrasti, ABUTH); experiment: Pre-emerge test, greenhouse herbicide activity screening; conditions: pre-emerge, rated 14 days after application, 0 = no damage, 100 = complete death
Method in brief: (§2)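 Fourteen days after spraying, crop and weed injury was graded visually from 0, no effect, to 100, every plant dead. Test substances were dissolved in acetone and applied at 15–1000 g ai/ha with a flat-fan nozzle. Application was either pre-emergence, one day after sowing, or post-emergence at the 2–3 leaf stage.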

[4] = system: green foxtail (Setaria viridis, SETVI); experiment: as above; conditions: pre-emerge, rated 14 days after application, 0 = no damage, 100 = complete death
Method in brief: as §2

[5] = system: lambsquarters (Chenopodium album, CHEAL); experiment: as above; conditions: pre-emerge, rated 14 days after application, 0 = no damage, 100 = complete death
Method in brief: as §2

[6] = system: ivyleaf morningglory (Ipomoea hederacea, IPOHE); experiment: as above; conditions: pre-emerge, rated 14 days after application, 0 = no damage, 100 = complete death
Method in brief: as §2

[7] = system: johnsongrass (Sorghum halepense, SORHA); experiment: as above; conditions: pre-emerge, rated 14 days after application, 0 = no damage, 100 = complete death
Method in brief: as §2

[8] = system: barnyardgrass (Echinochloa crus-galli, ECHCG); experiment: as above; conditions: pre-emerge, rated 14 days after application, 0 = no damage, 100 = complete death
Method in brief: as §2

[9] = system: sicklepod (Cassia obtusifolia, CASOB); experiment: as above; conditions: pre-emerge, rated 14 days after application, 0 = no damage, 100 = complete death
Method in brief: as §2

[10] = system: large crabgrass (Digitaria sanguinalis, DIGSA); experiment: as above; conditions: pre-emerge, rated 14 days after application, 0 = no damage, 100 = complete death
Method in brief: as §2

[11] = system: redroot pigweed (Amaranthus retroflexus, AMARE); experiment: Post-emerge test, greenhouse herbicide activity screening; conditions: phytotoxicity rating 0-100 (0 no damage, 100 complete death), 14 days after application
Method in brief: (§3)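 Each test used a mechanized track sprayer delivering 187 l/ha of acetone solution at 15–1000 g ai/ha. Post-emerge foliage at 2–3 leaves was treated with added 0.25% v/v non-ionic surfactant and bottom-watered only. Injury was assessed on day 14, where 100 means total kill.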

[12] = system: velvetleaf (Abutilon theophrasti, ABUTH); experiment: as above; conditions: phytotoxicity rating 0-100 (0 no damage, 100 complete death), 14 days after application
Method in brief: as §3

[13] = system: green foxtail (Setaria viridis, SETVI); experiment: as above; conditions: phytotoxicity rating 0-100 (0 no damage, 100 complete death), 14 days after application
Method in brief: as §3

[14] = system: lambsquarters (Chenopodium album, CHEAL); experiment: as above; conditions: phytotoxicity rating 0-100 (0 no damage, 100 complete death), 14 days after application
Method in brief: as §3

[15] = system: ivyleaf morningglory (Ipomoea hederacea, IPOHE); experiment: as above; conditions: phytotoxicity rating 0-100 (0 no damage, 100 complete death), 14 days after application
Method in brief: as §3

[16] = system: johnsongrass (Sorghum halepense, SORHA); experiment: as above; conditions: phytotoxicity rating 0-100 (0 no damage, 100 complete death), 14 days after application
Method in brief: as §3

[17] = system: barnyardgrass (Echinochloa crus-galli, ECHCG); experiment: as above; conditions: phytotoxicity rating 0-100 (0 no damage, 100 complete death), 14 days after application
Method in brief: as §3

[18] = system: sicklepod (Cassia obtusifolia, CASOB); experiment: as above; conditions: phytotoxicity rating 0-100 (0 no damage, 100 complete death), 14 days after application
Method in brief: as §3

[19] = system: large crabgrass (Digitaria sanguinalis, DIGSA); experiment: as above; conditions: phytotoxicity rating 0-100 (0 no damage, 100 complete death), 14 days after application
Method in brief: as §3

[20] = system: field corn (Zea mays L., var. Dekalb 535, CORN); experiment: Post-emerge test, crop safety; conditions: phytotoxicity rating 0-100 (0 no damage, 100 complete death), 14 days after application
Method in brief: as §2

[21] = system: upland rice (Oryza sp., var. Tebonnet, RICE); experiment: Post-emerge test, crop safety; conditions: phytotoxicity rating 0-100 (0 no damage, 100 complete death), 14 days after application
Method in brief: as §2

[22] = system: redroot pigweed (Amaranthus retroflexus, AMARE); experiment: Pre-emerge test, greenhouse herbicide activity screening; conditions: pre-emerge, rated 14 days after application, 0 = no damage, 100 = complete death
Method in brief: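 Rating: 0–100 visual injury, 14 DAA. Application: acetone, 187 l/ha, 15–1000 g ai/ha, flat-fan track sprayer with nozzle 40–45 cm above soil or canopy. Post-emerge runs used 0.25% v/v surfactant on 2–3 leaf plants.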

Cn1c(C(F)(F)F)cc(=O)n(-c2c(F)cc(Cl)c(OCc3ccccc3)c2N)c1=O [Compound 1-22]
Pre-emerge crop damage CORN (phytotoxicity rating, scale 0-100) ([1]; 63 g ai/ha): 0 | Pre-emerge crop damage CORN (phytotoxicity rating, scale 0-100) ([1]; 250 g ai/ha): 10 | Pre-emerge crop damage RICE (phytotoxicity rating, scale 0-100) ([2]; 63 g ai/ha): 0 | Pre-emerge crop damage RICE (phytotoxicity rating, scale 0-100) ([2]; 250 g ai/ha): 50 | Pre-emerge Herbicidal Activity ABUTH (phytotoxicity rating, scale 0-100) ([3]; 63 g ai/ha): 100 | Pre-emerge Herbicidal Activity ABUTH (phytotoxicity rating, scale 0-100) ([3]; 250 g ai/ha): 100 | Pre-emerge Herbicidal Activity SETVI (phytotoxicity rating, scale 0-100) ([4]; 63 g ai/ha): 90 | Pre-emerge Herbicidal Activity SETVI (phytotoxicity rating, scale 0-100) ([4]; 250 g ai/ha): 100 | Pre-emerge Herbicidal Activity CHEAL (phytotoxicity rating, scale 0-100) ([5]; 63 g ai/ha): 95 | Pre-emerge Herbicidal Activity CHEAL (phytotoxicity rating, scale 0-100) ([5]; 250 g ai/ha): 100 | Pre-emerge Herbicidal Activity IPOHE (phytotoxicity rating, scale 0-100) ([6]; 63 g ai/ha): 0 | Pre-emerge Herbicidal Activity IPOHE (phytotoxicity rating, scale 0-100) ([6]; 250 g ai/ha): 20 | Pre-emerge Herbicidal Activity SORHA (phytotoxicity rating, scale 0-100) ([7]; 63 g ai/ha): 0 | Pre-emerge Herbicidal Activity SORHA (phytotoxicity rating, scale 0-100) ([7]; 250 g ai/ha): 60 | Pre-emerge Herbicidal Activity ECHCG (phytotoxicity rating, scale 0-100) ([8]; 63 g ai/ha): 0 | Pre-emerge Herbicidal Activity ECHCG (phytotoxicity rating, scale 0-100) ([8]; 250 g ai/ha): 60 | Pre-emerge Herbicidal Activity CASOB (phytotoxicity rating, scale 0-100) ([9]; 63 g ai/ha): 0 | Pre-emerge Herbicidal Activity CASOB (phytotoxicity rating, scale 0-100) ([9]; 250 g ai/ha): 0 | Pre-emerge Herbicidal Activity DIGSA (phytotoxicity rating, scale 0-100) ([10]; 63 g ai/ha): 0 | Pre-emerge Herbicidal Activity DIGSA (phytotoxicity rating, scale 0-100) ([10]; 250 g ai/ha): 60 | Post-emerge Herbicidal Activity AMARE ([11]; 63 g ai/ha): 60 | Post-emerge Herbicidal Activity AMARE ([11]; 250 g ai/ha): 80 | Post-emerge Herbicidal Activity ABUTH ([12]; 63 g ai/ha): 100 | Post-emerge Herbicidal Activity ABUTH ([12]; 250 g ai/ha): 100 | Post-emerge Herbicidal Activity SETVI ([13]; 63 g ai/ha): 0 | Post-emerge Herbicidal Activity SETVI ([13]; 250 g ai/ha): 80 | Post-emerge Herbicidal Activity CHEAL ([14]; 63 g ai/ha): 40 | Post-emerge Herbicidal Activity CHEAL ([14]; 250 g ai/ha): 80 | Post-emerge Herbicidal Activity IPOHE ([15]; 63 g ai/ha): 40 | Post-emerge Herbicidal Activity IPOHE ([15]; 250 g ai/ha): 90 | Post-emerge Herbicidal Activity SORHA ([16]; 63 g ai/ha): 0 | Post-emerge Herbicidal Activity SORHA ([16]; 250 g ai/ha): 10 | Post-emerge Herbicidal Activity ECHCG ([17]; 63 g ai/ha): 0 | Post-emerge Herbicidal Activity ECHCG ([17]; 250 g ai/ha): 0 | Post-emerge Herbicidal Activity CASOB ([18]; 63 g ai/ha): 0 | Post-emerge Herbicidal Activity CASOB ([18]; 250 g ai/ha): 0 | Post-emerge Herbicidal Activity DIGSA ([19]; 63 g ai/ha): 0 | Post-emerge Herbicidal Activity DIGSA ([19]; 250 g ai/ha): 0 | Post-emerge Herbicidal Activity CORN (crop damage) ([20]; 63 g ai/ha): 5 | Post-emerge Herbicidal Activity CORN (crop damage) ([20]; 250 g ai/ha): 15 | Post-emerge Herbicidal Activity RICE (crop damage) ([21]; 63 g ai/ha): 10 | Post-emerge Herbicidal Activity RICE (crop damage) ([21]; 250 g ai/ha): 40 | Pre-emerge Herbicidal Activity AMARE (phytotoxicity rating, scale 0-100) ([22]; 63 g ai/ha): 95 | Pre-emerge Herbicidal Activity AMARE (phytotoxicity rating, scale 0-100) ([22]; 250 g ai/ha): 100
